Reference: patent publication US5399585A, “Carboxamides and sulfonamides compounds which have useful pharmaceutical utility” (Hoffmann-La Roche Inc., priority 1989, dated 1995)

target: T1, fibrinogen receptor of blood platelets, glycoprotein IIb/IIIa (Homo sapiens, UniProt P05106+P08514); test: Inhibition of fibrinogen binding to immobilized glycoprotein IIb/IIIa (ELISA); details: purified glycoprotein IIb/IIIa from human blood platelets bound to microtitre plates, read-out: IC50 (concentration of test substance required to inhibit the binding of fibrinogen to the immobilized receptor by 50%)
T1 construct: Glycoprotein IIb/IIIa is obtained from Triton X-100 extracts of human blood platelets; from tissue; host or cells: human blood platelets (Triton X-100 extract)
Protocol: Glycoprotein IIb/IIIa is obtained from Triton X-100 extracts of human blood platelets and purified by lectin affinity chromatography (Analytical Biochemistry 151, 1985, 169-177) and chromatography on an Arg-Gly-Asp-Ser affinity column (Science 231, 1986, 1559-62). The receptor protein obtained in this way is bound to microtitre plates. The specific binding of fibrinogen to the immobilized receptor is determined using an ELISA system (enzyme-linked immunosorbent assay). The IC50 values hereinafter correspond to that concentration of the test substance required to inhibit the binding of fibrinogen to the immobilized receptor by 50%: […]

T1 sequence (P08514 32-887 limits assumed): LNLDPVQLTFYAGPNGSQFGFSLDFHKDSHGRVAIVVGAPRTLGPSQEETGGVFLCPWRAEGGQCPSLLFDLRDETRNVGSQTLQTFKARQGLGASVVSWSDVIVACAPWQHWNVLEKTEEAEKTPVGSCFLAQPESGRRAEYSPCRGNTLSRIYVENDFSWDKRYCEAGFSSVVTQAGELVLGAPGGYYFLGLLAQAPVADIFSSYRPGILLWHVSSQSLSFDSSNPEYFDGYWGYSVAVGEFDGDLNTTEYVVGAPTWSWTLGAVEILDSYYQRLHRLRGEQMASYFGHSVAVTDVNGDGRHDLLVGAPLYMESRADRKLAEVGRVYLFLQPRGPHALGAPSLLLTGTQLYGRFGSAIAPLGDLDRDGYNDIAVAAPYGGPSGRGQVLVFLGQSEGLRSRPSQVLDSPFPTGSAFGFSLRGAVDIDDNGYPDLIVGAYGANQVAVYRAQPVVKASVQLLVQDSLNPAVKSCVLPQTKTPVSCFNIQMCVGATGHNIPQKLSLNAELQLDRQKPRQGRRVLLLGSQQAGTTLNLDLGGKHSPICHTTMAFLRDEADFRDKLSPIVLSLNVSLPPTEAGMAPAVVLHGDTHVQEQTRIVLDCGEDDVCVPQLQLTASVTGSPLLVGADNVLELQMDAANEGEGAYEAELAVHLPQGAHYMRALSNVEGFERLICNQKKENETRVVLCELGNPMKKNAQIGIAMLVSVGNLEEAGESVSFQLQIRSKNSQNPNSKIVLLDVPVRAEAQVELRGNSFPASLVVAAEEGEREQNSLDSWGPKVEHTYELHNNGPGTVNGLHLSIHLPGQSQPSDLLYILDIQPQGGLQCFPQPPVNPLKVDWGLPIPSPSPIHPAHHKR
T1 sequence (P08514 891-1039 limits assumed): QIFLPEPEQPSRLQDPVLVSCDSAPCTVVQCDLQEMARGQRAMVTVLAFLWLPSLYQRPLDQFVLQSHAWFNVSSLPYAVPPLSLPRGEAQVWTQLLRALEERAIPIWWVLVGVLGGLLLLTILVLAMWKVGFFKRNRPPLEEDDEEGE
T1 sequence (P05106 27-788): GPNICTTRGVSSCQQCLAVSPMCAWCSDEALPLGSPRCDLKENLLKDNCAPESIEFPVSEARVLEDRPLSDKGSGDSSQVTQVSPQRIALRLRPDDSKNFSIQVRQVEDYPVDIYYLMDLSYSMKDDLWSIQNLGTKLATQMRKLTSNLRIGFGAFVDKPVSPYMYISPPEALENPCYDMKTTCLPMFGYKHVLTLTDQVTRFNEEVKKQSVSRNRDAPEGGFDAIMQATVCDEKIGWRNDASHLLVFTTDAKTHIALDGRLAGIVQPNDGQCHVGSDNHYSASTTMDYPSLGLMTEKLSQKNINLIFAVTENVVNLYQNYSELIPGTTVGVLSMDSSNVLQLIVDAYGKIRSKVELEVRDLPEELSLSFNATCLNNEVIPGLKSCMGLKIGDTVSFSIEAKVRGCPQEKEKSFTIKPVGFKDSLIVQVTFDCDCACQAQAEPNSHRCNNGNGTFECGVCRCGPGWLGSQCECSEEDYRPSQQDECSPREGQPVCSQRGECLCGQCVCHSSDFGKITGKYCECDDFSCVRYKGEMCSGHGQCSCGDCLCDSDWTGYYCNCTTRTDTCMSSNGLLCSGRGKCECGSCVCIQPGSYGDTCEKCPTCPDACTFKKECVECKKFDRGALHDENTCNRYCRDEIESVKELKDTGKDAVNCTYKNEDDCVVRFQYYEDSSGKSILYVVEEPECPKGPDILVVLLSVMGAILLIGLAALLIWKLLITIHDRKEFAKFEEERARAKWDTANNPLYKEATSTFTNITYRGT

Point of comparison: `COC(=O)COc1ccc(C(=O)CN(C)C(=O)c2ccc(C(=N)N)cc2)cc1OCC(=O)OC` [Example 82, dimethyl [4-(p-amidino-N-methylbenzamido)acetyl-o-phenylenedioxy]diacetate], IC50 8.1 nM. Against it:
- C[C@H](Cc1ccc([C@H](C)CC(=O)O)s1)NC(=O)c1ccc(C(=N)N)cc1 (racemic) [Example 40, (RS)-5-[(RS)-2-(p-amidinobenzamido)propyl]-β-methyl-2-thiophene-propionic acid] — 4.9-fold higher, 40 nM
- COC(=O)COc1ccc(CCNC(=O)c2ccc(C(=N)N)cc2)cc1 [Example 1, Methyl p-[2-(p-amidinobenzamido)ethyl]phenoxyacetate] — 46-fold higher, 370 nM
- N=C(N)c1ccc(C(=O)NCCc2ccc(OCC(=O)O)cc2)cc1 [Example 2, p-[2-(amidinobenzamido)ethyl]phenoxyaceticacid] — 4.9-fold higher, 40 nM
- N=C(N)c1ccc(S(=O)(=O)NCCOc2ccc(CC(=O)O)cc2)cc1 [Example 10, p-[2-(p-amidinophenylsulphonamido)ethoxy]phenylacetic acid] — 79-fold higher, 640 nM
- N=C(N)c1ccc(S(=O)(=O)NCCc2ccc(OCC(=O)O)cc2)cc1 [Example 12, p-[2-(p-amidinobenzenesulphonamido)ethyl]phenoxyacetic acid] — 12-fold higher, 100 nM
- N=C(N)c1ccc(S(=O)(=O)N(CCc2ccc(OCC(=O)O)cc2)Cc2ccccc2)cc1 [Example 18, p-[2-(p-amidino-N-benzylphenylsulphonamido)ethyl]phenoxyacetic acid] — 89-fold higher, 720 nM
- N=C(N)c1ccc(S(=O)(=O)NCC(O)c2ccc(OCC(=O)O)cc2)cc1 (centres unmarked) [Example 20, p-[2-(p-amidinobenzenesulphonamido)-1-hydroxyethyl]phenoxyacetic acid] — 58-fold higher, 470 nM
- CC(CC(=O)O)c1ccc(CCNS(=O)(=O)c2ccc(C(=N)N)cc2)cc1 (stereo not drawn) [Example 36, p-[2-(p-amidinophenylsulphonamido)ethyl]-β-methyl-hydrocinnamic acid] — 12-fold higher, 100 nM
- N=C(N)c1ccc(S(=O)(=O)NCCCc2ccc(CC(=O)O)cc2)cc1 [Example 46, p-[3-(p-amidinophenylsulphonamido)propyl]phenylacetic acid] — 37-fold higher, 300 nM
- N=C(N)c1ccc(C(=O)NCCc2ccc(OCC(=O)O)cc2)cn1 [Example 48] — 3.7-fold higher, 30 nM
- N=C(N)c1ccc(CC(=O)NCc2ccc(OCC(=O)O)cc2)cc1 [Example 78, p-[2-(p-amidinophenyl)acetamido]-p-tolyloxyacetic acid] — 120-fold higher, 970 nM
- N=C(N)c1ccc(C(=O)N[C@@H](CO)Cc2ccc(OCC(=O)O)cc2)cc1 [Example 81, p-[(R)-2-(p-amidinobenzamido)-3-hydroxypropyl)phenoxyacetic acid] — 9.9-fold higher, 80 nM
- CN(CC(=O)c1ccc(OCC(=O)O)c(OCC(=O)O)c1)C(=O)c1ccc(C(=N)N)cc1 [Example 83, [4-(p-amidino-N-methylbenzamido)acetyl-o-phenylenedioxy]diacetic acid] — 120-fold lower, 0.07 nM
